# Test results as given in US12649751B2 (Arcus Biosciences, Inc., priority 2022, dated 2026).
# Read-outs that look alike come from different tables or passages of the source.
# Columns and labels:
# [1] = molecular target: HPK1 (Homo sapiens, UniProt Q92918); experiment: HPK1 Biochemical Assay (ADP-Glo luminescence; low ATP 10 μM or high ATP 200 μM)
# [2] = system: p-SLP-76 (Ser376) in Jurkat cells; experiment: pSLP76 Cellular Assay (AlphaLISA SureFire Ultra p-SLP-76 (Ser376), anti-CD3 activated Jurkat cells); assay type: cell-based; conditions: Homo sapiens, read-out: Cellular Potency
# Procedure, shortened: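 Read-out is AlphaLISA p-SLP-76 (Ser376) signal at 570 nm in Jurkat lysates, with IC50 fitted by 4-parameter logistic. Cells were starved overnight, exposed 1 h at 37 °C to 22 twofold compound dilutions in HBSS, then activated 45 min with anti-CD3 (0.025 mg/ml stock added).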
# [3] = 2 nM HPK1, 10 μM ATP, read-out: Biochemical Potency (low ATP)
# [4] = Jurkat cells, anti-CD3 stimulation, pSLP76
# [5] = HPK1 ADP-Glo assay, high ATP (200 μM ATP, 5 nM HPK1), read-out: Biochemical Potency (high ATP)
# [6] = pSLP76 (Ser376) AlphaLISA, anti-CD3 activated Jurkat cells
# Chain of HPK1 (Q92918 whole entry, species assumed): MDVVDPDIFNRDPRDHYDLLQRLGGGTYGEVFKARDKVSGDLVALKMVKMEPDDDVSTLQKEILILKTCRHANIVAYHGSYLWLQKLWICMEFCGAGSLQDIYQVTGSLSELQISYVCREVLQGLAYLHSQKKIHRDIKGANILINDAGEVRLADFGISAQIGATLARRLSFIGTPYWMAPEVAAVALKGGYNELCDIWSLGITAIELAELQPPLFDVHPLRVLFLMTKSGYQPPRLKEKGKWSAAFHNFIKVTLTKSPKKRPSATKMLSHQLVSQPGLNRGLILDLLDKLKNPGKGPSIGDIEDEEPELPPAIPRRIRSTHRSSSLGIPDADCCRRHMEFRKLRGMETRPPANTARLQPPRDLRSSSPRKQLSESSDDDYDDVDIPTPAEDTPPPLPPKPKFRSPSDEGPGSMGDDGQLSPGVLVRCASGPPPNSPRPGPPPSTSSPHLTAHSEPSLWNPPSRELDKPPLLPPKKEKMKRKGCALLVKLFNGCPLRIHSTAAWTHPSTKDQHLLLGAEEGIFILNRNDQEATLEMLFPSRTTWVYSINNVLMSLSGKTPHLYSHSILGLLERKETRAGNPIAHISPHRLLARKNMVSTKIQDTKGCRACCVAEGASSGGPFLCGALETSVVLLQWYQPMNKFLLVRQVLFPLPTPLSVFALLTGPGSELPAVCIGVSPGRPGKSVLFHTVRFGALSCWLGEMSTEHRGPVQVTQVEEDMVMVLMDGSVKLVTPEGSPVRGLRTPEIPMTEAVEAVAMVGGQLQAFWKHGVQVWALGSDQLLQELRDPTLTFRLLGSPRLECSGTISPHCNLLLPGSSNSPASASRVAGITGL
SMILES,"IC50 [1, 3] [nM]","IC50 [2, 4] [nM]","IC50 [1, 5] [nM]","IC50 [2, 6] [nM]","IC50 ([1]; HPK1 ADP-Glo assay, low ATP (10 μM ATP, 2 nM HPK1), read-out: Biochemical Potency (low ATP)) [nM]"
"CN1C[C@@H]2C[C@H]1CN2c1nccc(Nc2cc3nc(-c4cccc(S(=O)(=O)N(C)C)c4)sc3cn2)n1 [Example 289, N,N-dimethyl-3-[6-({2-[(1S,4S)-5-methyl-2,5-diazabicyclo[2.2.1]heptan-2-yl]pyrimidin-4-yl}amino)-[1,3]thiazolo[5,4-c]pyridin-2-yl]benzene-1-sulfonamide]",< 100,100 to 1000,–,–,–
"CNS(=O)(=O)c1cccc(-c2nc3cc(Nc4cncc(N5C[C@@H]6C[C@H]5CN6C)n4)ncc3s2)c1 [Example 290, N-methyl-3-[6-({6-[(1S,4S)-5-methyl-2,5-diazabicyclo[2.2.1]heptan-2-yl]pyrazin-2-yl}amino)-[1,3]thiazolo[5,4-c]pyridin-2-yl]benzene-1-sulfonamide]",< 100,100 to 1000,–,–,–
"CNS(=O)(=O)c1cccc(-c2nc3cc(Nc4ccnc(N5C[C@@H]6C[C@H]5CN6C)n4)ncc3s2)c1 [Example 291, N-methyl-3-[6-({2-[(1S,4S)-5-methyl-2,5-diazabicyclo[2.2.1]heptan-2-yl]pyrimidin-4-yl}amino)-[1,3]thiazolo[5,4-c]pyridin-2-yl]benzene-1-sulfonamide]",< 100,100 to 1000,–,–,–
"CCN1C[C@@H]2C[C@H]1CN2c1nc(C)cc(Nc2cc3nc(-c4cncc(N5CCOC[C@H]5C)c4)sc3cn2)n1 [Example 297, 2-[(1S,4S)-5-ethyl-2,5-diazabicyclo[2.2.1]heptan-2-yl]-6-methyl-N-(2-{5-[(3R)-3-methylmorpholin-4-yl]pyridin-3-yl}-[1,3]thiazolo[5,4-c]pyridin-6-yl)pyrimidin-4-amine]",–,–,< 100,100 to 1000,–
"Cc1cc(Nc2cc3nc(-c4nncn4C)sc3cn2)nc(N2C[C@@H]3C[C@H]2CN3CCO)n1 [Example 299, 2-[(1S,4S)-5-(4-methyl-6-{[2-(4-methyl-4H-1,2,4-triazol-3-yl)-[1,3]thiazolo[5,4-c]pyridin-6-yl]amino}pyrimidin-2-yl)-2,5-diazabicyclo[2.2.1]heptan-2-yl]ethan-1-ol]",–,–,< 100,100 to 1000,–
"Cc1cccnc1-c1nc2cc(Nc3ccc4c(n3)CNCC4)ncc2s1 [Example 300, N-[2-(3-methylpyridin-2-yl)-[1,3]thiazolo[5,4-c]pyridin-6-yl]-5,6,7,8-tetrahydro-1,7-naphthyridin-2-amine]",–,–,–,1000 to 5000,< 100
"Cc1cccnc1-c1nc2cc(Nc3cc(C(C)(C)O)nc(N4C[C@@H]5C[C@H]4CN5C)n3)ncc2s1 [Example 304, 2-{2-[(1S,4S)-5-methyl-2,5-diazabicyclo[2.2.1]heptan-2-yl]-6-{[2-(3-methylpyridin-2-yl)-[1,3]thiazolo[5,4-c]pyridin-6-yl]amino}pyrimidin-4-yl}propan-2-ol]",–,–,< 100,100 to 1000,–
"CCN1C[C@@H]2C[C@H]1CN2c1nc(C)cc(Nc2cc3nc(-c4cccc(CN5CCOC5=O)c4)sc3cn2)n1 [Example 310, (2-{(1S,4S)-5-ethyl-2,5-diazabicyclo[2.2.1]hept-2-yl}-6-methyl-4-pyrimidinyl)(2-{m-[(2-oxo-1,3-oxazolidin-3-yl)methyl]phenyl}-3-thia-1,5-diaza-6-indenyl)amine]",–,–,< 100,100 to 1000,–

# Second part, the compound after the results:
"IC50 [1, 3] [nM]","IC50 [2, 4] [nM]","IC50 [1, 5] [nM]","IC50 [2, 6] [nM]","IC50 ([1]; HPK1 ADP-Glo assay, low ATP (10 μM ATP, 2 nM HPK1), read-out: Biochemical Potency (low ATP)) [nM]",SMILES
–,–,< 100,100 to 1000,–,"CCN1C[C@@H]2C[C@H]1CN2c1nc(C)cc(Nc2cc3nc(-c4cncc(N5C(=O)OC[C@H]5C)c4)sc3cn2)n1 [Example 295, (4R)-3-{5-[6-({2-[(1S,4S)-5-ethyl-2,5-diazabicyclo[2.2.1]heptan-2-yl]-6-methylpyrimidin-4-yl}amino)-[1,3]thiazolo[5,4-c]pyridin-2-yl]pyridin-3-yl}-4-methyl-1,3-oxazolidin-2-one]"
–,–,< 100,< 100,–,"CCN1C[C@@H]2C[C@H]1CN2c1nc(C)cc(Nc2cc3nc(-c4nc(N)ccc4C)sc3cn2)n1 [Example 296, N-[2-(6-amino-3-methylpyridin-2-yl)-[1,3]thiazolo[5,4-c]pyridin-6-yl]-2-[(1S,4S)-5-ethyl-2,5-diazabicyclo[2.2.1]heptan-2-yl]-6-methylpyrimidin-4-amine]"
–,–,< 100,< 100,–,"CCN1C[C@@H]2C[C@H]1CN2c1nc(C)cc(Nc2cc3nc(O[C@H](C)c4ccccc4)sc3cn2)n1 [Example 298, 2-[(1S,4S)-5-ethyl-2,5-diazabicyclo[2.2.1]heptan-2-yl]-6-methyl-N-{2-[(1R)-1-phenylethoxy]-[1,3]thiazolo[5,4-c]pyridin-6-yl}pyrimidin-4-amine]"
–,–,< 100,< 100,–,"Cc1cc(Nc2cc3nc(-c4cnn(C)c4)sc3cn2)nc(N2C[C@@H]3C[C@H]2CN3CCO)n1 [Example 301, 2-[(1S,4S)-5-(4-Methyl-6-{[2-(1-methyl-1H-pyrazol-4-yl)-[1,3]thiazolo[5,4-c]pyridin-6-yl]amino}pyrimidin-2-yl)-2,5-diazabicyclo[2.2.1]heptan-2-yl]ethan-1-ol]"
–,–,< 100,< 100,–,"Cc1cccnc1-c1nc2cc(Nc3cc(C4CCC(O)CC4)nc(N4C[C@@H]5C[C@H]4CN5)n3)ncc2s1 (stereo partly drawn) [Example 302, 4-{2-[(1S,4S)-2,5-diazabicyclo[2.2.1]heptan-2-yl]-6-{[2-(3-methylpyridin-2-yl)-[1,3]thiazolo[5,4-c]pyridin-6-yl]amino}pyrimidin-4-yl}cyclohexan-1-ol]"
–,–,< 100,< 100,–,"CCN1C[C@@H]2C[C@H]1CN2c1nc(C)cc(Nc2cc3nc(-c4cccc(C(=O)N5CC[C@@H](C)C5)c4)sc3cn2)n1 [Example 305, [(R)-3-methyl-1-pyrrolidinyl]{m-[6-(2-{(1S,4S)-5-ethyl-2,5-diazabicyclo[2.2.1]hept-2-yl}-6-methyl-4-pyrimidinylamino)-3-thia-1,5-diaza-2-indenyl]phenyl}methanone]"
–,–,< 100,< 100,–,"Cc1cc(Nc2cc3nc(-c4ccnc(C(O)C5CC5)c4)sc3cn2)nc(N2C[C@@H]3C[C@H]2CN3CCO)n1 (stereo partly drawn) [Example 307, 2-[(1S,4S)-5-(4-{2-[2-(cyclopropylhydroxymethyl)-4-pyridyl]-3-thia-1,5-diaza-6-indenylamino}-6-methyl-2-pyrimidinyl)-2,5-diazabicyclo[2.2.1]hept-2-yl]ethanol]"
–,–,< 100,< 100,–,"Cc1cc(Nc2cc3nc(-c4ccnc(CC5CC5)c4)sc3cn2)nc(N2C[C@@H]3C[C@H]2CN3CCO)n1 [Example 308, 2-[(1S,4S)-5-(4-{2-[2-(cyclopropylmethyl)-4-pyridyl]-3-thia-1,5-diaza-6-indenylamino}-6-methyl-2-pyrimidinyl)-2,5-diazabicyclo[2.2.1]hept-2-yl]ethanol]"
–,–,< 100,< 100,–,"Cc1cc(Nc2cc3nc(-c4cnn(C)c4C(C)(C)O)sc3cn2)nc(N2C[C@@H]3C[C@H]2CN3C)n1 [Example 309, 2-{4-[6-(2-{(1S,4S)-5-methyl-2,5-diazabicyclo[2.2.1]hept-2-yl}-6-methyl-4-pyrimidinylamino)-3-thia-1,5-diaza-2-indenyl]-1-methyl-5-pyrazolyl}-2-propanol]"
